According to US20170002360A1, “PROTEIN PHOSPHATASE INHIBITOR” (priority 2013, published 2017):

What was measured:
[1] = test system: DU145 prostate cancer wild type cell line; experiment: CPT titration, loss of viability, wild-type prostate cancer cells; type: cell-based; conditions: varying concentrations of CPT; 48 hrs post CPT treatment
Experimental: FIG. 6A: Camptothecin (CPT) treatment of DU145 prostate cancer wild-type cell line. CPT was titrated on DU145 wild-type cells and 48 hrs post CPT treatment, the cells were examined for the loss of viability compared to control (untreated)
(§1) In addition to the described experiments, the effect of inhibiting the phosphatase PPEF1 on characterized published drug resistant cell lines was assessed. The resistant cell lines used in these experiments were DU145/RCO.1 cells, which were kindly provided by Prof. Dr. Yves Pommier from the Laboratory of Molecular Pharmacology, Center of Cancer research, National Cancer institute, Bethesda, USA. These DU145/RCO.1 cells and their resistance to CPT) have been described Urasaki et al. (Cancer Research 61, 2001, pp. 1964-1969). Initially, DU145 prostate cancer wild type cell line was treated with varying concentrations of camptothecin (CPT).

DU145/RCO.1 cells = experiment: CPT titration, loss of viability, CPT resistant cells with or without PPEF1 SiRNA; type: cell-based; conditions: 48 hrs post CPT treatment
Source text: (§2) FIG. 6B: Camptothecin treatment of CPT approved resistant cells. CPT was titrated on DU145/RCO.1 cells reported to be resistant to CPT. 48 hrs post CPT treatment, the cells were examined for the loss of viability compared to control (untreated)
as §2, with “6C:” for “6B:”, “cells after PPEF1 inhibition. 24 hrs post PPEF1 SiRNA treatment,” for “cells.”
as §1
The results of these experiments can be seen in FIG. 6c.

CC[C@@]1(O)C(=O)OCc2c1cc1n(c2=O)Cc2cc3ccccc3nc2-1 [CPT, camptothecin]
viability [1]: greatly reduced
viability (DU145/RCO.1 cells; varying concentrations of CPT alone): did not significantly change

Example 2: SiRNA oligonucleotide targeting PPEF1, CAGTTCGAATCTGGTAAACAT, obtained from Qiagen (chemistry not given here)
sensitivity to CPT / viability (DU145/RCO.1 cells; CPT titrated 24 hrs post PPEF1 SiRNA treatment): became sensitive and lost viability
